Laboratory results taken from patent US20080125496A1, “ANTIMICROBIAL FLAVOR AND ORAL CARE COMPOSITION CONTAINING THE SAME” (TAKASAGO INTERNATIONAL CORPORATION, priority 2001, published 2008).
Values after ≈ are worked out from the molar mass of the structure shown. Like-named read-outs stand apart in the source and are kept apart here.

How the values were obtained:
Format in all cases: cell-based
[1] = system: Porphyromonas gingivalis JCM 8525; test: MIC by agar plate dilution method, Pg-1; conditions: for MIC: Porphyromonas gingivalis, read-out: MIC Pg-1 (paradentosis-related bacteria; head Fg-1 in Tables 2 and 3)
Procedure: (§1) The minimum inhibitory activities of the antimicrobial flavors of the invention on anaerobic oral bacteria were measured by an agar plate dilution method.
(§2) All the test strains were obtained from Riken (The Institute of Physical and Chemical Research). The names and abbreviations of the strains are shown in Table 1 below (The abbreviations are used in the following description).
(§3) Each test microorganism kept frozen (−80° C.) in glycerol at a concentration of 25% was thawed. A 100 μl portion of the suspension was inoculated into 10 ml of a liquid medium. A Gifu university anaerobic medium (GAM) (Nissui Pharmaceutical Co., Ltd) having added thereto Hemin (Tokyo Kasei) and Menadione (Sigma) was used for Su-1 and Fn-1. Schaedler Broth (BBL) having added thereto Hemin and Menadione was used for the other strains. The culture was anaerobically incubated at 37° C. for 72 hours by using BBL Gas Pack Anaerobic System. After the cultivation, the microbial cell suspension of Su-1 was 10-fold diluted to prepare an inoculum. The cultures of Fn-1 and Pg-1 were used as such as an inoculum. The cultures of Pt-1, Aa-1, and Av-1 were subjected to centrifugation, and the separated microbial cells were suspended in 2 ml of sterilized physiological saline to prepare the respective inoculums.
(§4) An agar medium prepared by adding 2% agar (Difco), Hemin, and Menadione to Trypticase Soy Broth (BBL) was used. A test sample (antimicrobial flavor) was dissolved in ethanol to prepare 2-fold serial dilutions. To 10 ml of the agar medium was added 100 μl of each dilution and stirred well. The agar medium was transferred to a petri dish (diameter: 9 cm) and solidified at room temperature. The solidified agar medium was inoculated with 5 μl of the inoculum by means of a multipoint inoculator (Microplanter MIT-P27, supplied by Sakuma Seisakusho), followed by culturing at 37° C. for 72 hours under anaerobic conditions. The growth of the test microorganism was compared with a blank petri dish (the agar medium to which 100 μl of ethanol had been added). The lowest sample concentration that inhibited growth was taken as MIC (ppm).
(§5) Antimicrobial activities (MIC; ppm) of the aromahygiene base (AHB) prepared in (1) and the antimicrobial flavor compositions prepared in (2) (Examples 2-1 to 2-3) and Comparative Examples 2-1 to 2-3 were measured in the same manner as in Example 1 (2).

[2] = system: Actinomyces viscosus JCM 8352; test: MIC by agar plate dilution method, Av-1; conditions: for MIC: Actinomyces viscosus, read-out: MIC Av-1 (caries-related bacteria)
Procedure: as §1, §2, §3, §4, §5

[3] = system: Prevotella intermedia JCM 6322; test: MIC by agar plate dilution method, Pt-1; conditions: for MIC: Prevotella intermedia, read-out: MIC Pt-1 (paradentosis-related bacteria)
Procedure: as §1, §2, §3, §4, §5

[4] = system: Fusobacterium nucleatum JCM 6328; test: MIC by agar plate dilution method, Fn-1; conditions: for MIC: Fusobacterium nucleatum, read-out: MIC Fn-1 (paradentosis-related bacteria)
Procedure: as §1, §2, §3, §4, §5

[5] = system: Streptococcus mutans JCM 5175; test: MIC by agar plate dilution method, Su-1; conditions: for MIC: Streptococcus mutans, read-out: MIC Su-1 (caries-related bacteria)
Procedure: as §1, §2, §3, §4, §5

[6] = system: Actinomyces naeslundii JCM 8350; test: MIC by agar plate dilution method, Aa-1; conditions: for MIC: Actinomyces naeslundii, read-out: MIC Aa-1 (caries-related bacteria)
Procedure: as §1, §2, §3, §4, §5

[7] = agar medium, 37° C., 72 hours, anaerobic conditions
[8] = JCM8525, agar medium, 37° C., 72 hours, anaerobic conditions
[9] = JCM8352, agar medium, 37° C., 72 hours, anaerobic conditions
[10] = JCM6322, agar medium, 37° C., 72 hours, anaerobic conditions
[11] = JCM6328, agar medium, 37° C., 72 hours, anaerobic conditions
[12] = JCM5175, agar medium, 37° C., 72 hours, anaerobic conditions
[13] = JCM8350, agar medium, 37° C., 72 hours, anaerobic conditions

Row | Molecule | MIC Pg-1 (paradentosis-related bacteria; head Fg-1 in Tables 2 and 3) [1, 7] [ppm] | MIC Av-1 (caries-related bacteria) [2, 7] [ppm] | MIC Pt-1 (paradentosis-related bacteria) [3, 7] [ppm] | MIC Fn-1 (paradentosis-related bacteria) [4, 7] [ppm] | MIC Su-1 (caries-related bacteria) [5, 7] [ppm] | MIC Aa-1 (caries-related bacteria) [6, 7] [ppm] | MIC [1, 8] [µg/mL] | MIC [2, 9] [µg/mL] | MIC [4, 11] [µg/mL] | MIC [5, 12] [µg/mL] | MIC [6, 13] [µg/mL] | other results
1 | COC(/C=C/c1ccccc1)OC [Cinnamic aldehyde dimethyl acetal] | <15.6 | 250 | 62.5 | 500 | 250 | 125 | – | – | – | – | – | –
2 | CC(C)Cc1ccc2ncccc2c1 [Isobutyl quinoline] | 62.5 | 250 | 250 | 1000 | 1000 | 250 | – | – | – | – | – | –
3 | C=CCCCCCCCCO [9-decen-1-ol] | – | – | – | – | – | – | 125 (≈ 800 µM) | 250 (≈ 1600 µM) | 250 (≈ 1600 µM) | 1000 (≈ 6400 µM) | 250 (≈ 1600 µM) | MIC [3, 10]: 62.5 µg/mL (≈ 400 µM)
4 | CC(C)=CCC/C(C)=C/CCC(C)CCO (stereo not shown) [Dihydrofarnesol] | 7.8 | 62.5 | 7.8 | 31.3 | 31.3 | 31.3 | – | – | – | – | – | –
5 | CCCCCCCCC(C)C=O (stereo not shown) [2-Methyl decanal] | – | – | – | – | – | – | 62.5 (≈ 367 µM) | 500 (≈ 2940 µM) | 500 (≈ 2940 µM) | 500 (≈ 2940 µM) | 250 (≈ 1470 µM) | MIC [3, 10]: 125 µg/mL (≈ 734 µM)
6 | O=C1CCCCCCCCCCCCCC1 [Cyclopentadecanone] | – | – | – | – | – | – | – | – | – | – | – | MIC ([1]; JCM8525, 72 h): < 62.5 µg/mL; MIC ([2]; JCM8352, 72 h): > 1000 µg/mL; MIC ([3]; JCM6322, 72 h): < 62.5 µg/mL; MIC ([4]; JCM6328, 72 h): > 1000 µg/mL; MIC ([5]; JCM5175, 72 h): > 1000 µg/mL; MIC ([6]; JCM8350, 72 h): > 1000 µg/mL
7 | CC1(C)CCC[C@]2(C)[C@H]3CCO[C@]3(C)CC[C@@H]12 [Ambroxan] | 31.3 | >1000 | 31.3 | >1000 | >1000 | >1000 | – | – | – | – | – | –
8 | CCCCCCCCCCC=O [Undecanal] | – | – | – | – | – | – | 125 (≈ 734 µM) | 500 (≈ 2940 µM) | 500 (≈ 2940 µM) | 1000 (≈ 5870 µM) | 500 (≈ 2940 µM) | –
9 | CC(=O)c1cc2c(cc1C)C(C)(C)C(C)CC2(C)C (stereo not shown) [Tonalid] | – | – | – | – | – | – | – | – | – | – | – | MIC ([1]; JCM8525, 72 h): 15.6 µg/mL (≈ 60.4 µM); MIC ([2]; JCM8352, 72 h): > 1000 µg/mL; MIC ([3]; JCM6322, 72 h): 62.5 µg/mL (≈ 242 µM); MIC ([4]; JCM6328, 72 h): > 1000 µg/mL; MIC ([5]; JCM5175, 72 h): > 1000 µg/mL; MIC ([6]; JCM8350, 72 h): > 1000 µg/mL
10 | CCC(O)/C(C)=C/C1(C)CC2C=CC1C2 (stereo not shown) [Methyl sandeflor] | 62.5 | 125 | 62.5 | 250 | 500 | 250 | – | – | – | – | – | –
11 | CC1=CCC(C/C=C(\C)CO)C1(C)C (stereo not shown) [Santalinol] | 15.6 | 62.5 | 31.3 | 125 | 250 | 62.5 | – | – | – | – | – | –
12 | CC/C(=C\C[C@H]1CC=C(C)C1(C)C)CO [Levosandol] | 31.3 | 62.5 | 31.3 | 62.5 | 125 | 62.5 | – | – | – | – | – | –
13 | C=C(C)[C@@H]1CC=C(CO)CC1 [Perilla alcohol] | – | – | – | – | – | – | 125 (≈ 821 µM) | 500 (≈ 3280 µM) | 500 (≈ 3280 µM) | 500 (≈ 3280 µM) | 250 (≈ 1640 µM) | –
14 | CCCCCCCCCC(C)C=O (stereo not shown) [2-Methyl undecanal] | – | – | – | – | – | – | 62.5 (≈ 339 µM) | 125 (≈ 678 µM) | 125 (≈ 678 µM) | 250 (≈ 1360 µM) | 125 (≈ 678 µM) | MIC [3, 10]: 62.5 µg/mL (≈ 339 µM)
15 | CC1C(C)(C)C2=C(C(=O)CCC2)C1(C)C (stereo not shown) [Cashmerane] | 250 | 1000 | 250 | >1000 | >1000 | 1000 | – | – | – | – | – | –
16 | Isocamphylcyclohexanol | 3.9 | 31.3 | 3.9 | 31.3 | 31.3 | 31.3 | – | – | – | – | – | –
17 | CCCc1ccc(O)c(OC)c1 [Dihydroeugenol] | 62.5 | 500 | 62.5 | 500 | 1000 | 500 | – | – | – | – | – | –
18 | CCCCCCCCC=CCC=O [3-Dodecenal] | – | – | – | – | – | – | 62.5 (≈ 343 µM) | 500 (≈ 2740 µM) | 250 (≈ 1370 µM) | 1000 (≈ 5490 µM) | 500 (≈ 2740 µM) | MIC [3, 10]: 31.3 µg/mL (≈ 172 µM)
19 | CC(=O)c1cc2c(cc1C)C(C)(C)C(C)C2(C)C (stereo not shown) [Phantolid] | 31.3 | >1000 | 62.5 | >1000 | >1000 | >1000 | – | – | – | – | – | –
20 | C[C@@H]1CC[C@H]2C(C)(C)[C@H]3C[C@@]12CC[C@@]3(C)O [Cedrol] | – | – | – | – | – | – | 31.3 (≈ 141 µM) | > 1000 | > 1000 | > 1000 | > 1000 | MIC [3, 10]: 31.3 µg/mL (≈ 141 µM)
21 | CC(C=O)Cc1ccc(C(C)(C)C)cc1 (stereo not shown) [Lilial] | 62.5 | 500 | 62.5 | 500 | 500 | 125 | – | – | – | – | – | –
22 | CC(=O)C1=C(C)[C@@H]2C[C@@]3(C1)[C@H](C)CC[C@H]3C2(C)C [Acetyl cedrene] | 15.6 | 31.3 | – | 500 | 250 | 31.3 | – | – | – | – | – | –
23 | CC1CCC(C(C)C)C(OCC(O)CO)C1 (stereo not shown) [3-Menthoxypropane-1,2-diol] | – | – | – | – | – | – | 250 (≈ 1090 µM) | 62.5 (≈ 271 µM) | 1000 (≈ 4340 µM) | 1000 (≈ 4340 µM) | 500 (≈ 2170 µM) | –
24 | CCCCCCCC/C=C/C=O [Trans-2-undecenal] | – | – | – | – | – | – | – | 125 (≈ 743 µM) | 1000 (≈ 5940 µM) | 250 (≈ 1490 µM) | 125 (≈ 743 µM) | –
25 | CC/C(=C\CC1CC=C(C)C1(C)C)CO (stereo not shown) [Bacdanol] | 31.3 | 62.5 | – | 62.5 | 125 | 125 | – | – | – | – | – | –
26 | C=C(C)[C@@H]1CCC2=CC(=O)C[C@@H](C)[C@]2(C)C1 [Nootkatone] | – | – | – | – | – | – | 7.8 (≈ 35.7 µM) | 62.5 (≈ 286 µM) | 500 (≈ 2290 µM) | 1000 (≈ 4580 µM) | 62.5 (≈ 286 µM) | –
